The assay deals with T1, USP7 (Homo sapiens, UniProt Q93009).
T1 construct: full length human USP7 protein; made in house
Put plainly: USP7, Ub-PLA2 assay. In kind it is biochemical. To be noted: Ub-PLA2 / NBD C6-HPC fluorescence, 30 minute preincubation; read-out: EC50 for inhibition of USP7. A digest of the protocol: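 Activity read as fluorescence in a Ub-PLA2 format, with percent inhibition calculated within each plate against DMSO (uninhibited) and NEM (background) wells. Vehicle was 100% DMSO.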

Molecules are shown by their SMILES.

T1 sequence (Q93009 whole entry): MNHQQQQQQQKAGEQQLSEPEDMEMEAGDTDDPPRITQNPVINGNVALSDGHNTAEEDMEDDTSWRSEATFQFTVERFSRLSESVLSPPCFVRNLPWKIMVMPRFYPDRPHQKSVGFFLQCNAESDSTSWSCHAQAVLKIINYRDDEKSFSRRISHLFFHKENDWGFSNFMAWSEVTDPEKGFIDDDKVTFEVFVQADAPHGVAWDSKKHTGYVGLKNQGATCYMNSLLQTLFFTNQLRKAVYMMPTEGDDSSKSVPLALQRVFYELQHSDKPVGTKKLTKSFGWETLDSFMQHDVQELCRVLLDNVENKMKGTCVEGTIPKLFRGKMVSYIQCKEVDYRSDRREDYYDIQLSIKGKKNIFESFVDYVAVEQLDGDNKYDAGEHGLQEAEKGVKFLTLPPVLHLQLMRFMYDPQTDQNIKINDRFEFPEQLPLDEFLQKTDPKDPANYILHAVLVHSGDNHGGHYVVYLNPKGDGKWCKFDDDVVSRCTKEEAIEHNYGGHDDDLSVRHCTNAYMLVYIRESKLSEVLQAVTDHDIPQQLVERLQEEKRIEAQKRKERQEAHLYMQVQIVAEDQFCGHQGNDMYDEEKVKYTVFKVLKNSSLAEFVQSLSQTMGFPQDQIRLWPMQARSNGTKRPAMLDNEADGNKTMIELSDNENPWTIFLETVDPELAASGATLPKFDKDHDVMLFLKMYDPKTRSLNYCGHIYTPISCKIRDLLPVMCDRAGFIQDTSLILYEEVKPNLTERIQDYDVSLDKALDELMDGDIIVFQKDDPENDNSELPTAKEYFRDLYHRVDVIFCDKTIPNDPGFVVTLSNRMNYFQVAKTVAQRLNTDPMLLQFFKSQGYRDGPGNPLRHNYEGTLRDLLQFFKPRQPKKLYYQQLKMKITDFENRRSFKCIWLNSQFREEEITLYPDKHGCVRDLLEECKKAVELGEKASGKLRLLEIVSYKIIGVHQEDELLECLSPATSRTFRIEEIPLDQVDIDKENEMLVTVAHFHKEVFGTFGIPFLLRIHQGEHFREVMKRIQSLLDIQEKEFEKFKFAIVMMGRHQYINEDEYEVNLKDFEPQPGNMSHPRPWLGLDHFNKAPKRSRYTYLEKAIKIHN

One may read the EC50 as the concentration needed to bring the measured effect to its halfway point. On to `COc1ccc(CNC(=O)c2cc([N+](=O)[O-])c(Sc3c(Cl)cncc3Cl)s2)cc1OC` [Example 98, 5-((3,5-dichloropyridin-4-yl)thio)-N-(3,4-dimethoxybenzyl)-4-nitrothiophene-2-carboxamide], for which the EC50 is no more than 1000 nM. With `CC(C)CCNC(=O)c1cc([N+](=O)[O-])c(Sc2c(Cl)cncc2Cl)s1` [Example 110, 5-((3,5-dichloropyridin-4-yl)thio)-N-isopentyl-4-nitrothiophene-2-carboxamide], the EC50 was no more than 1000 nM. On to `O=C(NCc1cccc(-c2ccccc2)c1)c1cc([N+](=O)[O-])c(Sc2c(Cl)cncc2Cl)s1` [Example 58, N-([1,1′-biphenyl]-3-ylmethyl)-5-((3,5-dichloropyridin-4-yl)thio)-4-nitrothiophene-2-carboxamide], for which the EC50 lay within 1000 to 10000 nM. Then `COCCCNC(=O)CNC(=O)c1cc([N+](=O)[O-])c(Sc2c(Cl)cncc2Cl)s1` [Example 213, 5-((3,5-dichloropyridin-4-yl)thio)-N-(2-((3-methoxypropyl)amino)-2-oxoethyl)-4-nitrothiophene-2-carboxamide], with 1000 to 10000 nM.

Regarding `COCCNC(=O)c1cc([N+](=O)[O-])c(Sc2c(Cl)cncc2Cl)s1` [Example 53, 5-((3,5-dichloropyridin-4-yl)thio)-N-(2-methoxyethyl)-4-nitrothiophene-2-carboxamide], the EC50 was in the range of 1000 to 10000 nM. Under `CCN1CCC(CCNC(=O)c2cc([N+](=O)[O-])c(Sc3c(Cl)cncc3Cl)s2)CC1` [Example 185, 5-((3,5-dichloropyridin-4-yl)thio)-N-(2-(1-ethylpiperidin-4-yl)ethyl)-4-nitrothiophene-2-carboxamide] stands no more than 1000 nM; under `CC(O)c1cc([N+](=O)[O-])c(Sc2cccc(Cl)c2Cl)s1` (stereo not drawn) [Example 19, 1-[5-(2,3-dichlorophenyl)sulfanyl-4-nitro-2-thienyl]ethanol], greater than 10000 nM; under `O=C(NCCCN1CCCC1)c1cc([N+](=O)[O-])c(Sc2c(Cl)cncc2Cl)s1` [Example 191, 5-((3,5-dichloropyridin-4-yl)thio)-4-nitro-N-(3-(pyrrolidin-1-yl)propyl)thiophene-2-carboxamide], no more than 1000 nM. In the case of `N#Cc1cc(C(=O)Nc2cnc3ccccc3c2)sc1Sc1c(Cl)cncc1Cl` [Example 207, 4-cyano-5-((3,5-dichloropyridin-4-yl)thio)-N-(quinolin-3-yl)thiophene-2-carboxamide], the concentration for a half-maximal effect (EC50) lay within 1000 to 10000 nM. Under `O=C(NCCc1ccc(F)cc1)c1cc([N+](=O)[O-])c(Sc2c(Cl)cncc2Cl)s1` [Example 120, 5-((3,5-dichloropyridin-4-yl)thio)-N-(4-fluorophenethyl)-4-nitrothiophene-2-carboxamide] stands no more than 1000 nM. Then `CN(C)c1cccc(CNC(=O)c2cc([N+](=O)[O-])c(Sc3c(Cl)cncc3Cl)s2)c1` [Example 146, 5-((3,5-dichloropyridin-4-yl)thio)-N-(3-(dimethylamino)benzyl)-4-nitrothiophene-2-carboxamide], with no more than 1000 nM; and `CS(=O)(=O)c1cccc(CNC(=O)c2cc([N+](=O)[O-])c(Sc3c(Cl)cncc3Cl)s2)c1` [Example 125, 5-((3,5-dichloropyridin-4-yl)thio)-N-(3-(methylsulfonyl)benzyl)-4-nitrothiophene-2-carboxamide], with no more than 1000 nM.

Consider `COC(=O)c1cc([N+](=O)[O-])c(Oc2c(Cl)cncc2Cl)s1` [Example 258, Methyl 5-((3,5-dichloropyridin-4-yl)oxy)-4-nitrothiophene-2-carboxylate], for which the EC50 was in the range of 1000 to 10000 nM. As for `O=C(NCCCN1CCCC(O)C1)c1cc([N+](=O)[O-])c(Sc2c(Cl)cncc2Cl)s1` (stereo not drawn) [Example 223, 5-((3,5-dichloropyridin-4-yl)thio)-N-(3-(3-hydroxypiperidin-1-yl)propyl)-4-nitrothiophene-2-carboxamide], the EC50 is 1000 to 10000 nM. Then `NC(=O)c1cc([N+](=O)[O-])c(Sc2c(Cl)cncc2Cl)s1` [Example 46, 5-[(3,5-dichloro-4-pyridyl)sulfanyl]-4-nitro-thiophene-2-carboxamide], with 1000 to 10000 nM. On to `CN(C)c1ccc(NC(=O)c2cc([N+](=O)[O-])c(Sc3c(Cl)cncc3Cl)s2)cc1` [Example 86, 5-((3,5-dichloropyridin-4-yl)thio)-N-(4-(dimethylamino)phenyl)-4-nitrothiophene-2-carboxamide], for which the EC50 is 1000 to 10000 nM. Under `CN(C)CCCOc1cccc(CNC(=O)c2cc([N+](=O)[O-])c(Sc3c(Cl)cncc3Cl)s2)c1` [Example 126, 5-[(3,5-dichloro-4-pyridyl)sulfanyl]-N-[[3-(3-dimethylaminopropoxy)phenyl]methyl]-4-nitro-thiophene-2-carboxamide] stands no more than 1000 nM; under `CC(c1cc([N+](=O)[O-])c(Sc2ccc(Cl)cc2Cl)s1)N(C)C` (stereo not drawn) [Example 29, 1-[5-(2,4-dichlorophenyl)sulfanyl-4-nitro-2-thienyl]-N,N-dimethyl-ethanamine], greater than 10000 nM. Then `CSc1ccc(CNC(=O)c2cc([N+](=O)[O-])c(Sc3c(Cl)cncc3Cl)s2)cc1` [Example 264, 5-((3,5-dichloropyridin-4-yl)thio)-N-(4-(methylthio)benzyl)-4-nitrothiophene-2-carboxamide], with no more than 1000 nM; and `O=C(NCc1ccc(Br)cc1)c1cc([N+](=O)[O-])c(Sc2c(Cl)cncc2Cl)s1` [Example 118, N-(4-bromobenzyl)-5-((3,5-dichloropyridin-4-yl)thio)-4-nitrothiophene-2-carboxamide], with no more than 1000 nM. Then `O=C(c1cc([N+](=O)[O-])c(Sc2c(Cl)cncc2Cl)s1)N1CCCC(O)C1` (stereo not drawn) [Example 83, (5-((3,5-dichloropyridin-4-yl)thio)-4-nitrothiophen-2-yl)(3-hydroxypiperidin-1-yl)methanone], with 1000 to 10000 nM. Turning to `CC(=O)c1ccc(NC(=O)c2cc([N+](=O)[O-])c(Sc3c(Cl)cncc3Cl)s2)cc1` [Example 183, N-(4-acetylphenyl)-5-((3,5-dichloropyridin-4-yl)thio)-4-nitrothiophene-2-carboxamide], the EC50 was no more than 1000 nM. Take `O=C(NCCCN1CCCC1=O)c1cc([N+](=O)[O-])c(Sc2c(Cl)cncc2Cl)s1` [Example 104, 5-((3,5-dichloropyridin-4-yl)thio)-4-nitro-N-(3-(2-oxopyrrolidin-1-yl)propyl)thiophene-2-carboxamide]: the EC50 is no more than 1000 nM. With `CN1CCC(O)(CNC(=O)c2cc([N+](=O)[O-])c(Sc3c(Cl)cncc3Cl)s2)CC1` [Example 90, 5-((3,5-dichloropyridin-4-yl)thio)-N-((4-hydroxy-1-methylpiperidin-4-yl)methyl)-4-nitrothiophene-2-carboxamide], the EC50 was in the range of 1000 to 10000 nM. Under `O=C(Nc1ccc(F)c(C(F)(F)F)c1)c1cc([N+](=O)[O-])c(Sc2c(Cl)cncc2Cl)s1` [Example 140, 5-((3,5-dichloropyridin-4-yl)thio)-N-(4-fluoro-3-(trifluoromethyl)phenyl)-4-nitrothiophene-2-carboxamid] stands no more than 1000 nM.

On to `CNC(C)c1cc([N+](=O)[O-])c(Sc2ccc(Cl)cc2Cl)s1` (stereo not drawn) [Example 28, 1-[5-(2,4-dichlorophenyl)sulfanyl-4-nitro-2-thienyl]-N-methyl-ethanamine], for which the EC50 was greater than 10000 nM. Turning to `COc1cccc(CNC(=O)c2cc([N+](=O)[O-])c(Sc3c(Cl)cncc3Cl)s2)c1OC` [Example 97, 5-((3,5-dichloropyridin-4-yl)thio)-N-(2,3-dimethoxybenzyl)-4-nitrothiophene-2-carboxamide], the EC50 was no more than 1000 nM. Then `CN1CCN(C(=O)CNC(=O)c2cc([N+](=O)[O-])c(Sc3c(Cl)cncc3Cl)s2)CC1` [Example 218, 5-((3,5-dichloropyridin-4-yl)thio)-N-(2-(4-methylpiperazin-1-yl)-2-oxoethyl)-4-nitrothiophene-2-carboxamide], with 1000 to 10000 nM; and `CN(C)CCCOc1ccc(NC(=O)c2cc([N+](=O)[O-])c(Sc3c(F)cncc3F)s2)cc1` [Example 257, 5-((3,5-difluoropyridin-4-yl)thio)-N-(4-(3-(dimethylamino)propoxy)phenyl)-4-nitrothiophene-2-carboxamide], with 1000 to 10000 nM; and `O=C(Nc1cccc2cccnc12)c1cc([N+](=O)[O-])c(Sc2c(Cl)cncc2Cl)s1` [Example 78, 5-((3,5-dichloropyridin-4-yl)thio)-4-nitro-N-(quinolin-8-yl)thiophene-2-carboxamide], with greater than 10000 nM. Under `O=C(NCCc1ccccn1)c1cc([N+](=O)[O-])c(Sc2c(Cl)cncc2Cl)s1` [Example 109, 5-((3,5-dichloropyridin-4-yl)thio)-4-nitro-N-(2-(pyridin-2-yl)ethyl)thiophene-2-carboxamide] stands no more than 1000 nM; under `O=[N+]([O-])c1cc(Br)sc1Sc1ccc(Cl)cc1Cl` [Example 33, 5-bromo-2-(2,4-dichlorophenyl)sulfanyl-3-nitro-thiophene], greater than 10000 nM. Under `CC(=O)c1cc([N+](=O)[O-])c(Sc2ccc3ccccc3c2)s1` [Example 11, 1-[5-(2-Naphthylsulfanyl)-4-nitro-2-thienyl]ethanone] stands greater than 10000 nM.

For the molecule `COC(=O)c1cc([N+](=O)[O-])c(Sc2c(Cl)cncc2Cl)s1` [Example 43, Methyl 5-[(3,5-dichloro-4-pyridyl)sulfanyl]-4-nitro-thiophene-2-carboxylate], the EC50 lay within 1000 to 10000 nM. Then `O=C(NCc1ccc2c(c1)OCCO2)c1cc([N+](=O)[O-])c(Sc2c(Cl)cncc2Cl)s1` [Example 147, 5-((3,5-dichloropyridin-4-yl)thio)-N-((2,3-dihydrobenzo[b][1,4]dioxin-6-yl)methyl)-4-nitrothiophene-2-carboxamide], with no more than 1000 nM; and `CC(C)N1CCC(NC(=O)c2cc([N+](=O)[O-])c(Sc3nc4ccccc4s3)s2)CC1` [Example 253, 5-(benzo[d]thiazol-2-ylthio)-N-(1-isopropylpiperidin-4-yl)-4-nitrothiophene-2-carboxamide], with 1000 to 10000 nM.
